In paper PMC7956620 (Molecules, 2021):
Changes are numbered by the printed parent chain.

Key:
Type in all cases: cell-based
[1] = target: T1, 5-HT3A receptor Y153A mutant (Homo sapiens, UniProt P46098, Y148A); assay: two-electrode voltage clamp, Y153A mutant receptor in Xenopus oocytes; details: 100 µM chanoclavine, read-out: Inhibition Percentage (%)
T1 construct: host or cells: Xenopus laevis oocytes injected with in vitro transcribed mRNA
T1 sequence (P46098 24-478 Y148A): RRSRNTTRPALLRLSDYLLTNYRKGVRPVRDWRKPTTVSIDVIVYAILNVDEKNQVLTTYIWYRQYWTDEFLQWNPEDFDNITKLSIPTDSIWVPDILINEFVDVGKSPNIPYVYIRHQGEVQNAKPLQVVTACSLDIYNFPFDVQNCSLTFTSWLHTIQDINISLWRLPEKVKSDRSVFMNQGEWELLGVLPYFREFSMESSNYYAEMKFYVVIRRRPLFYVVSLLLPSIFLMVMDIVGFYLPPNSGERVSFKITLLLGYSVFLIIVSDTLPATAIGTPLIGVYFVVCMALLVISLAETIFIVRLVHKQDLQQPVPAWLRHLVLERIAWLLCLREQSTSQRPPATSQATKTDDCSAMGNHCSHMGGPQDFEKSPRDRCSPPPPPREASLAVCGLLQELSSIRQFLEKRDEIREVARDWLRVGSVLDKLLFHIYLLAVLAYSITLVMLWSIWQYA
Description: (§1) The site-directed mutation of one or two amino acids was performed using sense and antisense primers and Pfu polymerase (QuickChange Site-Directed Mutagenesis Kit; Agilent, Santa Clara, CA, USA) and amplified by polymerase chain reaction (PCR) to increase the target domain. After removing the existing methylated cDNA using Dpn Ⅰ, the PCR products were transformed into Escherichia coli strain DH5α. The cDNA of the 5-HT3A receptor was linearized by Xho Ⅰ at the end of the multi-cloning site, followed by transcription using T7 polymerase and a transcription kit (mMESSAGE mMACHINE T7 Transcription Kit; Thermo Fisher Scientific, Waltham, MA, USA). […]
(§2) To isolate oocytes, female Xenopus laevis were put into a container filled with ice and left for about one hour. […] When the Xenopus oocytes were ready for injection, 50 ng of mRNA was injected with a nanoliter injector (Drummond Scientific, Vernon Hills, IL, USA). […]
(§3) The oocytes in which mRNA was expressed during the incubation period allowed for the estimation of channel or receptor properties for observing drug and ligand potential interactions using a two-electrode voltage clamp (OC-725C; Warner Instruments, Hamden, CT, USA) and Digidata (1322A; Molecular Devices, Sunnyvale, CA, USA). […] The voltage and current electrodes were filled with 3 M KCl (0.3–0.7 MΩ) and analyzed at a −80 mV holding potential. […]

[2] = target: T2, 5-HT3A receptor F130A+N138A double mutant (Homo sapiens, UniProt P46098, F125A/N133A); assay: two-electrode voltage clamp, F130A+N138A double mutant receptor in Xenopus oocytes; details: 300 µM chanoclavine with 5-HT
T2 construct: host or cells: Xenopus laevis oocytes injected with in vitro transcribed mRNA
T2 sequence (P46098 24-478 F125A/N133A): T1 sequence (P46098 24-478 Y148A) with F102A, N110A, A125Y
Description: as §1, §2, §3

[3] = target: T3, 5-HT3A receptor L156A mutant (Homo sapiens, UniProt P46098, L151A); assay: two-electrode voltage clamp, L156A mutant receptor in Xenopus oocytes; details: 100 µM chanoclavine, read-out: Inhibition Percentage (%)
T3 construct: host or cells: Xenopus laevis oocytes injected with in vitro transcribed mRNA
T3 sequence (P46098 24-478 L151A): T1 sequence (P46098 24-478 Y148A) with A125Y, L128A
Description: as §1, §2, §3

For CN[C@@H]1Cc2c[nH]c3cccc(c23)[C@H]1/C=C(\C)CO [chanoclavine], the inhibition at 100 µM [1] was 56.9 ± 3.6%, the “effect on inward current” value [2] was “not significantly decreased” and the inhibition at 100 µM [3] was 46.1 ± 6.5%.
